The subject of this experiment is high-grade glioma with subarachnoid extension. In words: treatment of patients with high-grade glioma with subarachnoid extension. As to conditions: responding patients; before the combined treatment, under bevacizumab alone, or when intrathecal CpG was resumed. Format: in vivo, human. The procedure:
Four patients had high-grade glioma with subarachnoid extension. The treatment protocol of patients was as follows:
Subcutaneous injection of 0.3 mg/kg of CpG-ODN at D0, D7, D14, D21 et D28 (capped at 25 mg per injection, for patients>83 kg)
Intrathecal administration of CpG-ODN (7 mg) (in the cerebrospinal fluid) three times, with a two-week interval between each injection (D0, D14 and D28). (In 2 patients, the intrathecal injections were continued every 2 to 4 weeks for several months). (Other intrathecal injections of larger amounts of CpG-ODN (14 mg or 17 mg), again in three steps with a two weeks interval between each injection are currently tested, in other patients in a clinical trial.)
Intravenous perfusions of Avastin from 5 to 10 mg/kg every 2 weeks, started, depending on the cases, before, during or after the beginning of CpG-ODN.

The text below walks through data of patent US20140120088A1, “AGENTS FOR THE TREATMENT OF TUMORS” (Assistance Publique-Hopitaux de Paris, priority 2011, published 2014).

For the substance 5′-TAAACGTTATAACGTTATGACGTCAT-3′ [CpG], the “clinical outcome under single agent or on resuming the combination” value is listed as “only a slight improvement”.

For “Bevacizumab: monoclonal antibody directed against VEGF, marketed by Roche under the name of Avastin”, the “clinical outcome under single agent or on resuming the combination” value is recorded as “progression”.
